Residues, ends and D or L forms follow the SMILES beside them. *: point of attachment. Boc = CC(C)(C)OC(=O)*

Molecule `CN1CCN(CCCC2CCN(C(=O)N3c4ccccc4C(=O)Nc4cccnc43)CC2)CC1` had a melting point of 213 to 214 °C.
The value for `CCOC(=O)C(=O)Nc1ccc(C=Cc2ccc3ccccc3n2)cc1` was 160 to 162 °C; that for `CN(c1ccc(Br)cc1)c1nc(=O)c2cccnc2s1` was 221 to 222 °C; that for `CC(C)COC(=O)Oc1ccc(S(=O)(=O)c2ccc(S(N)(=O)=O)s2)cc1` was 111 to 112 °C.
In the case of `O=C1C2CCCC2=Nc2ccccc2N1CCc1ccccc1` (centres undefined) it was 101 to 102 °C; in that of `COCCn1ccc2cc(NC(=O)/C=C/c3ccc(C(C)(C)C)cc3)ccc21`, 138 °C; in that of `COc1ccc(-c2cc(F)c(F)cc2-c2ccc(S(C)(=O)=O)cc2)cc1OC`, 140 to 141 °C.
As to `CCOC(=O)c1cnn2c1c(OCCCN(C)C)nc1ccccc12`, the melting point is 78 to 81 °C.
The value for `COc1cc2c(cc1OC)CN(CCCCc1ccc(NC(=O)c3nc4ccccc4nc3C)cc1)CC2` was 146 °C; that for `CC(C)Cn1cnc2cnc3cccnc3c21` was 82 to 84 °C; that for `CC(=O)c1ccc(CCCCCCOc2ccc(C(=O)c3cccc(C(=O)O)c3)cc2CCC(=O)O)cc1` was 139 to 141 °C.
The value for `CCn1cc(Cl)c2cnc(NC(=O)c3ccc([C@](C)(O)CO)cc3)cc21` was 223 to 224 °C; that for `Nc1ccc(N=Nc2ccccc2)cc1Cl` was 152 to 153 °C.
The value for `O=C(C=C(c1cc(Cl)cc(Cl)c1)C(F)(F)F)c1ccc(C(=O)NC2CCCO2)cc1` (centres undefined) was 140 to 146 °C.
`CCOC(=O)c1cc(C(Br)Br)cnc1Br` yielded a melting point of 88 to 89 °C.
The value for `COc1cccc2sc(C3(c4ccc(S(N)(=O)=O)cc4)C=C(C(F)(F)F)NN3)nc12` (centres undefined) was 276 to 278 °C; that for `COc1cc(OC)c2c(=O)cc(Oc3ccccc3)oc2c1C1CCN(C)CC1O` (centres undefined) was 238 to 239 °C.
Molecule `O=C(NNc1ccc(Br)cc1)c1c(F)cccc1F` yielded a melting point of 172 °C.
Molecule `COc1c[nH]c(=O)c([N+](=O)[O-])c1` showed a melting point of 179 °C.
The value for `NC(=O)c1cc(O)c(O)cc1N` was over 300 °C.
`N#CC(=Cc1ccc(O)c(O)c1)C(=O)O` returned a melting point of 240 °C.
Regarding `C#CCSc1nc[nH]n1`, the melting point fell in the range of 102 to 104 °C.
The value for `Cc1ccc2c(Cl)cc(S(=O)(=O)NCCc3ccc(N)cc3)c(O)c2n1` was 249 to 253 °C.
`Cc1oc(-c2ccccc2)nc1COc1ccc(COc2nn(-c3ccccc3)cc2CC(=O)O)cc1` had a melting point of 151 to 152 °C.
The value for `Cc1ccc(NC#N)c(-c2ccccc2)c1` was 80 °C; that for `CC(C)n1nc(-c2sc(NC(=O)c3ccc(Cl)cc3)nc2-c2ccccc2)ccc1=O` was 205 to 206 °C; that for `Cc1c(-c2ccccc2)oc2c(SCCCCl)cccc2c1=O` was 84 to 86 °C.
`CC(C)(C)OC(=O)N1CCN2C(=O)N(c3cc(Cl)cc(Cl)c3)C(=O)C2C1` (centres undefined) registered a melting point of 60.2 °C.
In the case of `CCCC12CCC3C4CCC(=O)C=C4CCC3C1CCC2OC(=O)CCc1ccccc1` (centres undefined) it was 104 to 108 °C; in that of `COc1cc2c(cc1O)CCN(Cc1cccc(C)c1)C2`, 128 to 129 °C; in that of `COc1cc(C=O)ccc1OCCBr`, 61 to 64 °C.
Molecule `O=C(O)C1CC(=C2CCN(c3ccccc3)C2=O)c2ccc(Cl)cc2N1` (centres undefined) had a melting point of over 200 °C.
For `Cc1ccccc1-c1cc(N2CCN(C)CC2)ncc1N(C)C(=O)C(C)(C)c1cc(C(F)(F)F)cc(C(F)(F)F)c1`, the melting point lay in the range of 155 to 157 °C.
The value for `O=C1CCc2c(-c3ccc(F)cc3)sc(-c3ccncc3)c21` was 155 to 157 °C; that for `Cc1c(C(F)(F)F)noc1N` was 53 to 54 °C.
In turn, `O=C(O)CC(=O)OCC(Cl)(Cl)Cl` gave a melting point of 42 to 43 °C.
Consider `Cc1c(NC(=O)CC(C)(C)C)c(C)c2c(c1-c1nccs1)OCC2c1ccc(C(C)C)cc1` (centres undefined), for which the melting point was 164 to 166 °C.
Molecule `COc1ccc(C2=NN(C3CCSCC3)C(=O)[C@H]3CC=CC[C@@H]23)cc1Cl` (relative stereo) came in with a melting point of 170 to 171 °C.
The value for `NC(=O)c1cc(-c2ccc(Cl)cc2)[nH]c1Cl` was over 200 °C; that for `COc1ccc2c(c1)sc1nc(C(=O)C3CC3)cn12` was 213 °C.
For the molecule `Cc1oc(-c2ccccc2)nc1COc1ccc(Cn2cc(CCC(=O)O)c(-c3ccccc3)c2)cc1`, the melting point lay in the range of 124 to 125 °C.
In the case of `CC(=O)N1N=C2C(=Cc3ccccc3)CS(=O)(=O)CC2C1c1ccccc1` (centres undefined) it was 218 to 220 °C; in that of `N#Cc1ccc(-c2ccc(OCCCCC(=O)NO)cc2)cc1`, 142 to 143 °C; in that of `COc1ccc2c(ccc3cc(OC)c(OC)c(OC)c32)c1`, 142 to 144 °C.
In the case of `CC(=O)N1CCC2(CC1)CC(=O)c1c(O)cccc1O2` it was 114 to 116 °C.
In the case of `CCc1[nH]n(C2CCCC2)c2nc(-n3ccnc3)nc(=O)c1-2` it was 228 to 230 °C; in that of `O=C1NCC(CCN2CCN(c3ccccc3F)CC2)O1` (centres undefined), 121 to 124 °C; in that of `CCCOC(=O)Nc1cnc(OCCC)c(-c2nc3c(CCC)nn(C)c3c(=O)[nH]2)c1`, 210 to 211 °C.
Molecule `Cc1c(O)c(C)c2c(C)cn(C(=O)C(C)(C)C)c2c1C` yielded a melting point of 152 to 153 °C.
In the case of `CCC(CC)OC(=O)c1ccc(C(=O)NS(=O)(=O)c2ccccc2)cn1`, the melting point lay within 182 to 183 °C.
The value for `COc1cccc(-c2c(Cl)cccc2Cl)c1OC` was 49 to 50 °C.
In the case of `C#CCOc1cc(Oc2ccc(Cl)cc2)ncn1` it was 100 °C; in that of `O=C(O)CCOc1cccc2cccnc12`, 211 to 213 °C.
`Cc1cc(F)ccc1-c1ccc(S(=O)(=O)N2c3ccccc3CC2C(=O)NCCOc2ccc(CC(=O)O)cc2)cc1` (centres undefined) came in with a melting point of 99 to 105 °C.
Regarding `COC(=O)c1ccc(OCCNC(=O)C2Cc3ccccc3N2S(=O)(=O)c2ccc(-c3ccc(F)cc3)cc2)c(C)c1` (centres undefined), the melting point fell in the range of 81 to 85 °C.
Molecule `CC(=O)Nc1nc(-c2ccc(F)cc2)c(-c2ccc(=O)n(C(C)C)n2)s1` registered a melting point of 236 to 238 °C.
The value for `CCN(CC)CCC1CCCCN1C(=O)N1c2ccccc2C(=O)Nc2cccnc21` (centres undefined) was 100 °C; that for `O=C1Nc2ccccc2N(C(=O)CN2CCCCC2CN2CCCCC2)c2cscc21` (centres undefined) was 190 to 195 °C.
On to `CC(=O)NCC1(C)OCCc2c1[nH]c1ccccc21` (centres undefined), for which the melting point was 100 to 102 °C.
The molecule `COc1cc2c(cc1O)CCN(C(=O)c1ccccc1OC)C2=O` registered a melting point of 199 to 200 °C.
Take `CCN1CCCC1c1cccc(OC(=O)NC)c1` (centres undefined): the melting point is 67 to 69 °C.
The value for `Nc1cc(OCCO)ncn1` was 133 to 137 °C; that for `CCc1c(Sc2cc(Cl)cc(Cl)c2)c(CC#N)nn1CCO` was 84 to 85 °C; that for `CC1(C)NC(=O)c2ccc(O)cc21` was 231 to 233 °C.
The value for `CCc1c(Cl)ccc2c1C=C(C(=O)O)C(C(F)(F)F)O2` (centres undefined) was 172 °C; that for `CCCCCCCCCCCCCCOc1ccc(C(=O)OCC)cc1` was 34 to 35 °C; that for `CNc1nc(-c2cccc(-c3cccc(-c4ccccc4)c3)c2)c2cc(OC)c(OC)cc2n1` was 193 to 195 °C.
`Clc1nc(Cl)c2occc2n1`: the melting point came out at 107 °C.
As to `COc1ccc(CNC(=O)[C@@H](NC(=O)[C@H](NCc2ccc(N(C)C)cc2)[C@H](O)[C@H](Cc2ccccc2)NC(=O)OC(C)(C)C)C(C)C)c(O)c1`, the melting point lay within 89 to 91 °C.
`CC(C)(C)OC(=O)Nc1ccc(C#Cc2ccc(Cl)cc2)cc1N`: the melting point was in the range of 170 to 173 °C.
In the case of `COc1cccc(Sc2c3c(=O)n(C)c(=O)n(CC(C)C)c3cn2Cc2cccc3ccccc23)c1` it was 130 to 133 °C; in that of `Cc1cccc2ncc3nnnn3c12`, 166 to 168 °C; in that of `COC1CCC(S(=O)(=O)c2ccccc2)O1` (centres undefined), 68 °C.
In the case of `O=c1c2ccccc2cc(-c2ccc(F)cc2)n1CCF` it was 119 to 121 °C.
In the case of `Cc1c(C(=O)Nc2ccc(N3CCC(N4CCOCC4)CC3)c(C#N)c2)cnn1-c1cccc(C(F)(F)F)c1` it was 215 to 216 °C; in that of `CCOC(=O)CCCCCCCn1c(Cc2ccccc2)nc(-c2ccccc2)c1-c1ccccc1`, 82 to 83 °C.
In turn, `COc1ccc(-c2cc3nccnc3[nH]2)cc1` gave a melting point of 244 to 246 °C.
The value for `CCN(CCO)Cc1cc(Nc2nc(Nc3ccc4c(c3OC)CCC(N3CCOCC3)CC4)ncc2Cl)ccc1F` (centres undefined) was 81 to 83 °C.
The value for `CCOC(=O)C(C(N)=O)c1cc(OC)c(OC)c(OC)c1` (centres undefined) was 93 °C; that for `Cc1oc(-c2ccccc2)nc1CCOc1cccc2sccc12` was 130 to 132 °C; that for `CC(C)CC(NC(=O)C(Cc1ccc(O)cc1)NC(=O)OC(C)(C)C)C(=O)NCC(=O)O` (stereo not drawn) (Boc-Tyr-Leu-Gly-OH; configuration not given here) was 189 to 190 °C.
In the case of `O=c1c2ccc(Cl)cc2[nH]n1Cc1ccccc1` it was 209 to 214 °C; in that of `CS(=O)(=O)N(CCO)c1c(Cl)c(C(F)(F)F)cc2[nH]c(=O)c(=O)[nH]c12`, 292 to 294 °C; in that of `CN(C(=O)CNc1nc(-c2ccccc2)ncc1N)c1ccccc1`, 183 to 184 °C.
On to `Cc1nnc(COc2ccc(OCC(C)Oc3ccccn3)cc2)s1` (centres undefined), for which the melting point was 72 to 78 °C.
The molecule `O=c1ccn(-c2ccc([N+](=O)[O-])cc2)c(=O)[nH]1` came in with a melting point of over 300 °C.
`CCCCCCCCCCCCCCCC1CN(C(=O)c2cc(OC)c(OC)c(OC)c2)CCN1C(=O)c1cc(OC)c(OC)c(OC)c1` (centres undefined): the melting point amounted to 68 °C.
In the case of `CCOC(=O)C(=NO)c1csc(NC(c2ccccc2)(c2ccccc2)c2ccccc2)n1` it was 260 °C.
On to `O=C(NO)[C@H](CNS(=O)(=O)c1ccc(OCc2ccc(F)cc2)cc1)N1CCCCC1`, for which the melting point is 140 °C.

The values above are taken from a melting point compilation (Tetko et al.; mined from patent text by program, amines drawn as free bases though some values may be those of a salt).
